Data reported in ChEMBL document CHEMBL1201862, “PubChem BioAssay data set” (2004).
pIC50: −log10 of the molar value. The source made the active and inactive calls.

Tests used:
[1] = test system: HEK293; assay: cells; settings: Homo sapiens
[2] = test system: HEK293; assay: cells; settings: Homo sapiens; remark: listed apart in the source
[3] = molecular target: Mu-type opioid receptor (Homo sapiens, UniProt P35372); assay: HTS Image-Based Screen for Agonists of the MOR Receptor. [Related pubchem assays (depositor defined):AID1777, AID1785, AID1786, AID2133]; format: functional;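 further: imaging of beta-arrestin GFP recruitment into spots after receptor activation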
Mu-type opioid receptor, sequence (P35372 whole entry): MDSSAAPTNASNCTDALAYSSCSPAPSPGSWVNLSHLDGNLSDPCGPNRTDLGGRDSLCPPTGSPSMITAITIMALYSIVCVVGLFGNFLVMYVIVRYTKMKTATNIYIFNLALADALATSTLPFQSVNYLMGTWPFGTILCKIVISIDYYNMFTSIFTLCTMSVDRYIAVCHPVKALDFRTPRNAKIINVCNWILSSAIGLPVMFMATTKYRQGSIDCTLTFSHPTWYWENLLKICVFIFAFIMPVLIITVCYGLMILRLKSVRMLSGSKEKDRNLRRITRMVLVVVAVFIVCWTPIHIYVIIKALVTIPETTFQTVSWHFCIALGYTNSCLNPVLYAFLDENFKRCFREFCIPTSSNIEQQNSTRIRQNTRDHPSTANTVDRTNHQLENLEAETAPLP

[4] = test system: INS1; assay: beta cell apoptosis inhibitors, cytokine rescue, dose response, luminescence, retest (AID 449756); format: functional, cell-based; settings: Rattus norvegicus;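 further: cell death triggered by IL-1 beta plus TNF-alpha plus IFN-gamma mixture; protective hits raise ATP signal compared with cytokine alone wells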
[5] = molecular target: T1, Beta-galactosidase (Escherichia coli, UniProt Q8VNN2); assay: PubChem AID 485352; format: functional
T1 sequence (Q8VNN2 whole entry): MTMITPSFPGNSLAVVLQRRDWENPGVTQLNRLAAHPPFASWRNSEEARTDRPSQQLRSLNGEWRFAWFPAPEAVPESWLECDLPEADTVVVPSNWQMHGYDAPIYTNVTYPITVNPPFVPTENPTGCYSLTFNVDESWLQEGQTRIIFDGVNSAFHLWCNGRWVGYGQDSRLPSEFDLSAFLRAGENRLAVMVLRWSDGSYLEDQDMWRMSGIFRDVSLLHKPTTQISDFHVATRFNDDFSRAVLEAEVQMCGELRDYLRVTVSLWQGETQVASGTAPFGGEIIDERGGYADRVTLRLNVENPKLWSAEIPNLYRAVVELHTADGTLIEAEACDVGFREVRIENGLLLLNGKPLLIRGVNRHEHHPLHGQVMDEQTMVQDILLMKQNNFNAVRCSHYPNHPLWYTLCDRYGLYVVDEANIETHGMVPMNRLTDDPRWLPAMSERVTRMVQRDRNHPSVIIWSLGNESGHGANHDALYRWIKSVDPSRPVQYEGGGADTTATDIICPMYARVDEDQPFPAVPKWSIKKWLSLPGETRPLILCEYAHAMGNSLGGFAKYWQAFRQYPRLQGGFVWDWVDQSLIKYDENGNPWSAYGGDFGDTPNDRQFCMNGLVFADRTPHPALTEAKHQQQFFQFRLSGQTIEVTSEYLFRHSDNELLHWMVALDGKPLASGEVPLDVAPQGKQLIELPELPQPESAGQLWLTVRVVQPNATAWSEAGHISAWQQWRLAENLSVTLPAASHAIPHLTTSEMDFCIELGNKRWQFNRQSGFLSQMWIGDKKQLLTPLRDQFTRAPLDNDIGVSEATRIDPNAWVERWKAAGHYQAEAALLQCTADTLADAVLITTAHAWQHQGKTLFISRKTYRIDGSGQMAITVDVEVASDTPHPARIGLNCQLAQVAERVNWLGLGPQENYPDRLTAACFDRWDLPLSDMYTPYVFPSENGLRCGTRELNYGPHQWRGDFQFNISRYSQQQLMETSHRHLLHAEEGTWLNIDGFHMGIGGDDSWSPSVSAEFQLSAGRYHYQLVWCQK

[6] = molecular target: T1, Beta-galactosidase; format: functional
[7] = molecular target: T2, Kappa-type opioid receptor (Homo sapiens, UniProt P41145); format: functional
T2 sequence (P41145 whole entry): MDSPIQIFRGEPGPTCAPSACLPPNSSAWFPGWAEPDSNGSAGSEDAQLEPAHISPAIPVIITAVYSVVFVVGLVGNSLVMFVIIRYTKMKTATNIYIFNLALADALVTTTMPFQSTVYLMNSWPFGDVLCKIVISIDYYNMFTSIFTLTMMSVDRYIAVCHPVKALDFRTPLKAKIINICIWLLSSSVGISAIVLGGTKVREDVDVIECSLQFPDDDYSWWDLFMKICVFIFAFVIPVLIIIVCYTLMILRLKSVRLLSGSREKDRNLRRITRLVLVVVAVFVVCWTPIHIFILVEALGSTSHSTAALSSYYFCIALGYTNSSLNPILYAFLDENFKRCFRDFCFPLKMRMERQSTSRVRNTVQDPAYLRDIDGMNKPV

[8] = molecular target: T3, Type-1 angiotensin II receptor (Homo sapiens, UniProt P30556); assay: AT1 receptor antagonists, dose response, selectivity assay for APJ receptor antagonist project, cell-based, uHTS hits (AID 463214); format: functional;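 further: antagonist potency against angiotensin II stimulated AT1 response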
T3 sequence (P30556 whole entry): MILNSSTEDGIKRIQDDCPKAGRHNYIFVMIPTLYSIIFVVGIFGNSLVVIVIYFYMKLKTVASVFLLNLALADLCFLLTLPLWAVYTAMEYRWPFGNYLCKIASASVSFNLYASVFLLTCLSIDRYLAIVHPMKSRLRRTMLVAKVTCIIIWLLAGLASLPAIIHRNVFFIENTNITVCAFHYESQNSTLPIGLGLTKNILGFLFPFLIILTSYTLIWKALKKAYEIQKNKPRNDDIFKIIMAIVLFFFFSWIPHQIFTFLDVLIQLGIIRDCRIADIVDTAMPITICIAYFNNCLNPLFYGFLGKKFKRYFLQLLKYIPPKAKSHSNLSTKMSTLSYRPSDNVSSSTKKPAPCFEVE

[9] = THP-1 cell cytotoxicity, dose response, cytotoxicity control for non-replicating M. tuberculosis project (AID 489025); format: functional
[10] = Vero E6 cell cytotoxicity, dose response, cytotoxicity control for non-replicating M. tuberculosis project, secondary assay (AID 492998); format: functional, VeroE6; settings: Vero C1008
[11] = molecular target: T4, Delta-type opioid receptor (Homo sapiens, UniProt P41143); assay: HTS Image-Based Screen for Antagonists of the DOR Receptor. [Related pubchem assays (depositor defined):AID1777, AID1785, AID1786, AID2133]; format: functional
T4 sequence (P41143 whole entry): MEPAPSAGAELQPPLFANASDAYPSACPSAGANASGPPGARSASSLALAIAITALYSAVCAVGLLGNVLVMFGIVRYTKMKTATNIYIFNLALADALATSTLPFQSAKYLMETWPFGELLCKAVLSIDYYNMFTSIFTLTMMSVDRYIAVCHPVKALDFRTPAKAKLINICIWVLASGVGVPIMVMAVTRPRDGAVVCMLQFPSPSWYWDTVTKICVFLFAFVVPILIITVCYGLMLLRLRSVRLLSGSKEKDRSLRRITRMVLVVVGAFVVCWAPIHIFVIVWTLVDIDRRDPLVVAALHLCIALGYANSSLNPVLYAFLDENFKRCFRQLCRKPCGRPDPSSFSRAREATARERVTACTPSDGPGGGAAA

[12] = microbe, parasite or virus in culture; format: functional; settings: Mycobacterium tuberculosis
[13] = molecular target: T2, Kappa-type opioid receptor; format: functional; remark: listed apart in the source
[14] = HepG2 cell cytotoxicity, dose response, cytotoxicity control for non-replicating M. tuberculosis project (AID 489018); format: functional; settings: Mycobacterium tuberculosis
[15] = cells; format: functional
[16] = molecular target: T4, Delta-type opioid receptor; assay: HTS Image-Based Screen for Agonists of the DOR Receptor. [Related pubchem assays (depositor defined):AID1777, AID1786, AID2133]; format: functional
[17] = Luminescence Cell-Based Dose Retest to Confirm Inhibitors of Cancer Stem Cells. [Related pubchem assays (depositor defined):AID2717, AID2721]; format: functional; settings: Homo sapiens
[18] = cytotoxicity in HMLE control line with eGFP shRNA, dose response, counter-screen for HMLE_sh_ECad selective toxicity project, cell-based, HMLE_sh_eGFP, luminescence (AID 463074); format: functional, Homo sapiens;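 further: HMLE human mammary epithelial cells expressing control shRNA against eGFP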
[19] = molecular target: T5, Ubiquitin-conjugating enzyme E2 N (Homo sapiens, UniProt P61088); format: functional;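 further: Dose-response confirmation in a TR-FRET assay detecting UBC13-driven polyubiquitin chain formation, inhibition measured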
T5 sequence (P61088 whole entry): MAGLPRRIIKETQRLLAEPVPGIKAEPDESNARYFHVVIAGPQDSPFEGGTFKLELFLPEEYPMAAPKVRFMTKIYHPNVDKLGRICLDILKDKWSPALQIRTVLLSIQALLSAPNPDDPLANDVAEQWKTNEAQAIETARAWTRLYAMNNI

[20] = cytotoxicity toward NIH3T3 fibroblasts, dose response, counter-screen, cell-based, ATP luminescence, mouse fibroblasts (AID 2010); format: functional; settings: NIH3T3;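 further: cells exposed to compound for about 90 hours before reading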
[21] = inhibitors of intracellular T. cruzi replication, confirmation, NIH3T3 host cells, beta-gal luminescence (AID 2044); format: functional, cell-based;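 further: intracellular parasites grown in NIH/3T3 mouse fibroblasts as host cells; luminescent beta-galactosidase reporter signal from transgenic T. cruzi replicating inside host cells; inhibitors lower the luminescence signal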
[22] = molecular target: T6, DNA repair protein RAD52 homolog (Homo sapiens, UniProt P43351); format: functional, biochemical
T6 sequence (P43351 whole entry): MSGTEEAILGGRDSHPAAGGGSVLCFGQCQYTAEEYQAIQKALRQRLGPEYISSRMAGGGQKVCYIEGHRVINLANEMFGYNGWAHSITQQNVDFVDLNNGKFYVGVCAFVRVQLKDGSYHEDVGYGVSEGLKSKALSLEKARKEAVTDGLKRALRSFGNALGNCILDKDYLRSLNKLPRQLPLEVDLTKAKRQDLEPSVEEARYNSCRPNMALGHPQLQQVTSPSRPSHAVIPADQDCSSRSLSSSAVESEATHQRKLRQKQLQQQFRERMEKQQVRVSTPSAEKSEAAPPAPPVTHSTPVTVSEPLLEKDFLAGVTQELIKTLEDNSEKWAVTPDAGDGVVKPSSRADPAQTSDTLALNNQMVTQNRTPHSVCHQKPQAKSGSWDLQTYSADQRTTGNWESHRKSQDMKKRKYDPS

[23] = molecular target: Intestinal-type alkaline phosphatase (Homo sapiens, UniProt P09923); assay: inhibition of human intestinal alkaline phosphatase – biochemical, dose response (AID 488876); format: functional
Intestinal-type alkaline phosphatase (Homo sapiens, UniProt P09923), sequence (P09923 whole entry): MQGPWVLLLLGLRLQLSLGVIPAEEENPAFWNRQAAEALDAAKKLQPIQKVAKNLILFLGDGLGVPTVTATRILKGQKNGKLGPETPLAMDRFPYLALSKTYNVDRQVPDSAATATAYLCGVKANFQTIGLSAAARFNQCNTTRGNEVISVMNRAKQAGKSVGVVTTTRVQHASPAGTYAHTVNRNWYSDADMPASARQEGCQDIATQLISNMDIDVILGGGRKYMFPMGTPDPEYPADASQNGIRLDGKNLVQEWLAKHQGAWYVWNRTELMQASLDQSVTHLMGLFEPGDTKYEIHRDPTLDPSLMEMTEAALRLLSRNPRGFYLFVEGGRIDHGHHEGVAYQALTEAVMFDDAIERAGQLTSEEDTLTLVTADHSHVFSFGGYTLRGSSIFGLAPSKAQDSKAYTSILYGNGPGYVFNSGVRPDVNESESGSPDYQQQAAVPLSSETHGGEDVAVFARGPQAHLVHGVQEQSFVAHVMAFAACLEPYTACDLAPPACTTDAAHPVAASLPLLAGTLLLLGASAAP

[24] = molecular target: T7, Alkaline phosphatase, tissue-nonspecific isozyme (Homo sapiens, UniProt P05186); assay: TNAP enzyme inhibition by screening hits, dose response, selectivity assay for mouse IAP inhibitor project, biochemical, human TNAP, uHTS hits (AID 488906); format: functional
T7 sequence (P05186 whole entry): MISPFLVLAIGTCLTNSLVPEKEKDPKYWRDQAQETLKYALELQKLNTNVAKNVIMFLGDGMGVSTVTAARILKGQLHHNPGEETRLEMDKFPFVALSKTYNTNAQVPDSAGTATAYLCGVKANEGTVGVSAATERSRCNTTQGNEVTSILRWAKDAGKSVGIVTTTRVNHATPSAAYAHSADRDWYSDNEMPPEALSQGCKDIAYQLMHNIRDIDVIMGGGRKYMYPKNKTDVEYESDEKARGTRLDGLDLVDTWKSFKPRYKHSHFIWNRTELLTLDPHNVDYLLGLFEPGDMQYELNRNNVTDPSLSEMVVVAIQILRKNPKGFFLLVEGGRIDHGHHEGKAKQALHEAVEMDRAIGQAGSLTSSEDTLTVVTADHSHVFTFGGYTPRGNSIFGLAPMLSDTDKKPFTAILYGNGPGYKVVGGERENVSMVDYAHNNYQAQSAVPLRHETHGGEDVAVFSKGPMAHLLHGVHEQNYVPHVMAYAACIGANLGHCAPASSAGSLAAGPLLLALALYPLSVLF

[25] = molecular target: T8, Streptokinase A (Streptococcus pyogenes serotype M1, UniProt P10520); assay: S. pyogenes streptokinase expression inhibitors, potency, dose response, plasminogen activation absorbance, OD405 (AID 1914); format: functional, Streptococcus pyogenes M1 GAS;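 further: secreted streptokinase activity via plasminogen activation per viability signal from cell pellet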
T8 sequence (P10520 whole entry): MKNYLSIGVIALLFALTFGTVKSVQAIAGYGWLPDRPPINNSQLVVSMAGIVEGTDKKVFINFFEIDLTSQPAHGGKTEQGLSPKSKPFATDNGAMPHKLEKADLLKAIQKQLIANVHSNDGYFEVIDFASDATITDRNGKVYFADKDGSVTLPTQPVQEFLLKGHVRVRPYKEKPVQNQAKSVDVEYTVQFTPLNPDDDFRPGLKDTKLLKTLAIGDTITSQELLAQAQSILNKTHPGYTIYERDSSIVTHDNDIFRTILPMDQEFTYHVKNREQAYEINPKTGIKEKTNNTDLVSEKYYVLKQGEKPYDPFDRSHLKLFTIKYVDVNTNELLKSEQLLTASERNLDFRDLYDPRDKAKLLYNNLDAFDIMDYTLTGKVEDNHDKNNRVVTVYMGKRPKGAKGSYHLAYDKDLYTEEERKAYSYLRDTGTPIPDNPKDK

[26] = molecular target: Intestinal-type alkaline phosphatase (Mus musculus, UniProt P24822); assay: PubChem AID 488785; format: functional
Intestinal-type alkaline phosphatase (Mus musculus, UniProt P24822), sequence (P24822 whole entry): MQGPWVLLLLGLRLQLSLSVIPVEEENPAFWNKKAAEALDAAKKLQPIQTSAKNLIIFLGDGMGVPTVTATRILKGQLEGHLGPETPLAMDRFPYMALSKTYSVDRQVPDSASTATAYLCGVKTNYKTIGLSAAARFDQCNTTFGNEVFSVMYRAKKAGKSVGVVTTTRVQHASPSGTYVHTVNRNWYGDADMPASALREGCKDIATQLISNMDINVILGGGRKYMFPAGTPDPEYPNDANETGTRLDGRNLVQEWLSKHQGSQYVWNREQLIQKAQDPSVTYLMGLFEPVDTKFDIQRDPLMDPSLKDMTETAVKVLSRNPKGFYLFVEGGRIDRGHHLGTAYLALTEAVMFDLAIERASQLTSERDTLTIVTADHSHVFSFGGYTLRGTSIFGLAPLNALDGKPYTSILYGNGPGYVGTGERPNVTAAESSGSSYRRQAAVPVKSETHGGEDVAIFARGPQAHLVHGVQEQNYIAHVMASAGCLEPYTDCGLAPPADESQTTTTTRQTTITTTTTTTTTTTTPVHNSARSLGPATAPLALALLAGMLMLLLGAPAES

[27] = molecular target: T9, Rac GTPase-activating protein 1 (Homo sapiens, UniProt Q9H0H5); assay: MgcRacGAP GTPase-activating activity inhibitors, confirmation, biochemical, ADP Hunter fluorescence, primary and confirmatory (AID 624330); format: functional
T9 sequence (Q9H0H5 whole entry): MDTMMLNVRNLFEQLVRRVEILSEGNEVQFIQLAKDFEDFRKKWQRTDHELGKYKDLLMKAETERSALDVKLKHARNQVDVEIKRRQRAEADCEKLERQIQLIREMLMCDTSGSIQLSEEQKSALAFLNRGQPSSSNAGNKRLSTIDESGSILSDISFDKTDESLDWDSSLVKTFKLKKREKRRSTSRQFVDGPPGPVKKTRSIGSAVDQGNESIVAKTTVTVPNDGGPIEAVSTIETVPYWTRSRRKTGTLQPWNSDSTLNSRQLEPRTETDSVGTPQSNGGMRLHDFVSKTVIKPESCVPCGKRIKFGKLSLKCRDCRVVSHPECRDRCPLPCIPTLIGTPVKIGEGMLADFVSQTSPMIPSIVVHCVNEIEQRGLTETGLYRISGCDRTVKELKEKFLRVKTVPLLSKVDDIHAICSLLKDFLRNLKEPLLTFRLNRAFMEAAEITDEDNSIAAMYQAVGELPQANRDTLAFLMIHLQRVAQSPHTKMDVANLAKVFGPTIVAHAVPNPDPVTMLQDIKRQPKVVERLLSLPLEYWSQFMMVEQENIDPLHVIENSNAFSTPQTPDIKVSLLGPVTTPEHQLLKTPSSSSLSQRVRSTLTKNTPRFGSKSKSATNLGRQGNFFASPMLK

[28] = molecular target: Bcl-2-like protein 10 (Homo sapiens, UniProt Q9HD36); assay: displacers of TR3 peptide from Bcl-B, primary screen, selectivity assay for Bfl-1 inhibitor project, biochemical, fluorescence polarization, FITC-TR3 peptide (AID 748);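 further: fluorescence polarization from a fluorescein-labelled TR3 peptide binding purified Bcl-B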
Bcl-2-like protein 10, sequence (Q9HD36 whole entry): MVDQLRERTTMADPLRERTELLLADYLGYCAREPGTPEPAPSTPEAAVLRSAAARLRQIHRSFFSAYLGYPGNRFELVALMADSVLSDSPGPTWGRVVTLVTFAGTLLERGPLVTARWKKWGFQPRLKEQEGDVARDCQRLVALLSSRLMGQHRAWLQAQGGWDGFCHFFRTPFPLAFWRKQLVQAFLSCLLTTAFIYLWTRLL

[29] = molecular target: T10, Aspartyl aminopeptidase (Plasmodium falciparum 3D7, UniProt Q8I2J3)
T10 sequence (Q8I2J3 whole entry): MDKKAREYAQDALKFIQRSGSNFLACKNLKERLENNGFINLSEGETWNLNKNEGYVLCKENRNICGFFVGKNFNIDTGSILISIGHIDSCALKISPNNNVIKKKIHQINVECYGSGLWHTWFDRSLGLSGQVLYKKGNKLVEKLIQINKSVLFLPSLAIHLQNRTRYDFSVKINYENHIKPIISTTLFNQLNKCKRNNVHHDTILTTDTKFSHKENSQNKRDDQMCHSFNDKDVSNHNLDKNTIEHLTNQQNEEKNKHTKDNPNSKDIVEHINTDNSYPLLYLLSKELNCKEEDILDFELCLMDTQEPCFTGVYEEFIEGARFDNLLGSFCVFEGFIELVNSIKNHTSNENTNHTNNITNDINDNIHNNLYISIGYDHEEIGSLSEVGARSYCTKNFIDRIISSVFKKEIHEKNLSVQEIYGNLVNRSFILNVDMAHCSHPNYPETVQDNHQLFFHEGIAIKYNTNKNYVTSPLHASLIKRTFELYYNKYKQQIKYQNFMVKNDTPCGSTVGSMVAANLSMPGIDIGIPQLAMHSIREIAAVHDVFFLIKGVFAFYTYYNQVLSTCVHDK

[30] = Artemis endonuclease inhibitor potency, dose response, biochemical, fluorescence intensity (AID 720701); format: functional;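 further: Artemis endonuclease enzyme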
[31] = molecular target: Procathepsin L (Homo sapiens, UniProt P07711)
Procathepsin L, sequence (P07711 whole entry): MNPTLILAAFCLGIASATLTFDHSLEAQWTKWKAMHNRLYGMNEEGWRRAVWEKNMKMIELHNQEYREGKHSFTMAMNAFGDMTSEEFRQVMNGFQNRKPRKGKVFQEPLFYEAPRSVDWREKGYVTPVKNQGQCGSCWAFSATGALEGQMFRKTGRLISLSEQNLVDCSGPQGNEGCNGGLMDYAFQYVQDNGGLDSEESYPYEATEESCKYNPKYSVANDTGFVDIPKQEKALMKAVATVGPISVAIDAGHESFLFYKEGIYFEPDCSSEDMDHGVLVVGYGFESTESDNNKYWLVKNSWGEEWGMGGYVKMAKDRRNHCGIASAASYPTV

[32] = HeLa cell cytotoxicity, dose response, cytotoxicity control for MgcRacGAP inhibitor project (AID 624300); format: functional

C1COCCO1.CCOc1ccc(N2C(=O)CC(N(CCc3ccc(OC)c(OC)c3)C(S)=Nc3ccccc3)C2=O)cc1 (configuration not stated)
EC50 [1]: > 59.7 µM (inactive)
EC50 [2]: > 59.7 µM (inactive)

O=C(NNC(=O)C12CC3CC(CC(C3)C1)C2)c1ccccn1
EC50 [3]: > 32 µM (inactive)
AC50 [4]: 3.14 µM (active)
EC50 [5]: > 40 µM (inactive)
EC50 [6]: > 31.5 µM (inactive)
pIC50 [7]: < 4.49
IC50 [8]: 11.2 µM (active)
CC50 [9]: 5.31 µM (active)
CC50 [10]: 8.61 µM (active)
IC50 [11]: > 32 µM (inactive)
CC50 [12]: 16.7 µM (active)
IC50 [13]: 15 µM (active)
CC50 [14]: > 20 µM (active)
IC50 [15]: 9.85 µM (active)
EC50 [16]: > 32 µM (inactive)

CN(c1ccccc1)S(=O)(=O)c1ccc(-c2ccccc2)cc1
AC50 [17]: 2.66 µM (active)
AC50 [18]: 62.2 µM (active)

Cc1cc(N2CCN(C)CC2)nc2ccc(NC(=S)N3CCN(c4ccc(Cl)cc4)CC3)cc12
IC50 [19]: > 20 µM (inactive)
EC50 [20]: 11.9 µM (active)
AC50 [17]: 0.367 µM (active)
EC50 [21]: 762 nM (active)
AC50 [18]: 184 µM (active)
AC50 [22]: 3.07 µM (active)

Cc1cc(Cl)ccc1NC(=S)NCCC(c1ccccc1)c1ccccc1
IC50 [23]: > 100 µM (inactive)
IC50 [24]: 80.1 µM (active)
EC50 [25]: 48.5 µM (active)
IC50 [26]: 7.04 µM (active)

O=C(COc1ccccc1C(=O)N/N=C\c1ccc(O)c(O)c1)N/N=C/c1ccc(O)c(O)c1
IC50 [27]: 21.1 µM (active)
IC50 [23]: > 100 µM (inactive)
IC50 [24]: > 100 µM (inactive)
IC50 [28]: 1.07 µM (active)
IC50 [29]: 1.5 µM (active)
IC50 [30]: 1.91 µM (active)
IC50 [26]: 12.8 µM (active)
IC50 [31]: > 59.6 µM (not active)
CC50 [32]: 100 µM (active)
